Legend:
[1] = Surface tension measurements by pendant drop method in water (cmc and surface properties); format: physicochemical; settings: for Amin (nominal surface area per molecule) / Γmax × 10^6 (highest surface access at the air-water interface): air-water interface; for πcmc (ability to lower the surface tension of water) / γcmc (surface tension at cmc) / cmc (critical micelle concentration) / surface tension at all investigated concentrations (rank among surfactants): water; for γcmc (surface tension at cmc) / cmc (critical micelle concentration): pendant drop; for cmc (critical micelle concentration): intersection of two lines in plot of surface tension versus concentration; for surface tension at all investigated concentrations (rank among surfactants): FIGS. 9 and 10
Protocol: Surface Properties. Surface tensions were identified with the help of pendant drop method at 20° C. using Biolin Scientific Attension instrument. Water was used as a solvent for all surface tension experiments. The reported data points of all surface tension measurements are average equilibrium values. The critical micelle concentration (cmc) was measured from the intersection point of two lines in the plot of surface tension versus concentration.
Surface Tension Measurements. […] The surface properties can be related to the different chain length, spacer length, spacer rigidity, and to the presence of different counterions in the gemini surfactants.
The gemini surfactant ability to lower the surface tension of water (πcmc), highest surface access (rmax) at the interface of air-water, as well as nominal surface area per molecule (Amin) was given in Table 1. The method used to calculate these properties was also given in our previous publication; Hussain S S, Animashaun M A, Kamal M S, Ullah N, Hussein I A, Sultan A S (2016) Synthesis, Characterization and Surface Properties of Amidosulfobetaine Surfactants Bearing Odd-Number Hydrophobic Tail. J Surfactants Deterg 19 (2):413-420, incorporated herein by reference in its entirety.

[2] = Long-term thermal stability: aging of aqueous solutions, followed by NMR and FTIR; format: physicochemical; settings: aqueous solution, sealed tube, 90° C., 10 days
Protocol: Long-Term Thermal Stability. Long-term thermal stability was assessed using a novel approach based on an aging technique. Aqueous solutions of gemini surfactants (1)-(6) were aged in a sealed tube for 10 days at 90° C. NMR (^1H, ^13C) and FTIR instruments were used to identify the changes in the structure of the surfactants after aging.
The short-term and long-term thermal stability of the synthesized gemini surfactants (1)-(6) were investigated. […] (FIG. 2). The long-term thermal stability of the gemini surfactants (1)-(6) was examined using a novel approach based on aging technique where the aqueous solutions of surfactants were aged in a sealed tube at 90° C. for 10 days. NMR (^1H, ^13C) and FTIR instruments were used to study the change in the structure of the surfactants after aging at a different period. […]
Similarly, the olefinic protons in the spacer group of 10 days aged sample of gemini surfactants 1 (FIG. 3) were also detected. […]
According to ^13C NMR spectra of the 10 days aged samples of gemini surfactants (1) and (6)(FIGS. 4 and 6), the methyl [—(CH2)n—CH3)] and methylene carbon in hydrophobic tail of gemini surfactants (1) and (6) were clearly identified. […] The olefinic carbon in hydrophobic tail of gemini surfactant (6) (FIG. 6) as well as the olefinic carbon in spacer group of gemini surfactant 1 (FIG. 4) were also detected. […]

[3] = aqueous solution; cited from earlier work

SMILES	Amin (nominal surface area per molecule) [1] [nm^2]	Γmax × 10^6 (highest surface access at the air-water interface) [1] [mol m^−2]	πcmc (ability to lower the surface tension of water) [1] [mN m^−1]	γcmc (surface tension at cmc) [1] [mN m^−1]	cmc (critical micelle concentration) [1] [mol/L]	long-term thermal stability (structure change by NMR, FTIR after aging) [2]	surface tension at all investigated concentrations (rank among surfactants) [1]	temperature of prolonged heating that causes decomposition [3] [°C]
CCCCCCCCCCCC(=O)NCCC[N+](C)(C)C/C=C/C[N+](C)(C)CCCNC(=O)CCCCCCCCCCC.[Br-].[Br-] [Surfactant 1]	0.91	1.81	35.77	36.23	0.000256	no structural changes occurred	–	–
CCCCCCCCCCCC(=O)NCCC[N+](C)(C)C/C=C\C[N+](C)(C)CCCNC(=O)CCCCCCCCCCC.[Cl-].[Cl-] [Surfactant 2]	1.05	1.60	33.88	38.12	–	–	highest surface tension	–
CCCCCCCC/C=C\CCCCCCCC(=O)NCCC[N+](C)(C)C/C=C/C[N+](C)(C)CCCNC(=O)CCCCCCC/C=C\CCCCCCCC.[Br-].[Br-] [Surfactant 3]	0.86	1.92	36.33	35.67	0.000158	–	–	–
CCCCCCCC/C=C\CCCCCCCC(=O)NCCC[N+](C)(C)C/C=C\C[N+](C)(C)CCCNC(=O)CCCCCCC/C=C\CCCCCCCC.[Cl-].[Cl-] [Surfactant 4]	1.01	1.64	34.77	37.23	0.000291	–	–	–
CCCCCCCC/C=C\CCCCCCCC(=O)NCCC[N+](C)(C)CCCC[N+](C)(C)CCCNC(=O)CCCCCCC/C=C\CCCCCCCC.[Br-].[Br-] [Surfactant 5]	0.73	2.26	39.08	32.92	0.000105	–	–	–
CCCCCCCC/C=C\CCCCCCCC(=O)NCCC[N+](C)(C)CCCCCC[N+](C)(C)CCCNC(=O)CCCCCCC/C=C\CCCCCCCC.[Br-].[Br-] [Surfactant 6]	0.70	2.38	41.66	30.34	7.7e-05	no structural changes occurred	least surface tension	–
CCCCCCCCCCCCOS(=O)(=O)[O-].[Na+] [sodium dodecyl sulfate (SDS), sodium dodecyl sulfate]	–	–	–	–	–	–	–	≥ 40

Reference: patent US11858878B2, “Gemini surfactant composition and method for treating subterranean rock” (KING FAHD UNIVERSITY OF PETROLEUM AND MINERALS, priority 2018, dated 2024)
